Results from article PMC10175918 (Communications Biology, 2023).
Like-named read-outs stand apart in the source and are kept apart here.

How the values were obtained:
348 GPCRs [1] = target: T1, 348 GPCRs (Homo sapiens, UniProt Q5T848); assay: TGFα-shedding assay-based GPCR screening with chimeric Gα subunit proteins; format: cell-based; settings: 10µM, Favipiravir 100μM
T1 construct: expressed in transfected cells; host or cells: HEK293A
T1 sequence (Q5T848 24-1215): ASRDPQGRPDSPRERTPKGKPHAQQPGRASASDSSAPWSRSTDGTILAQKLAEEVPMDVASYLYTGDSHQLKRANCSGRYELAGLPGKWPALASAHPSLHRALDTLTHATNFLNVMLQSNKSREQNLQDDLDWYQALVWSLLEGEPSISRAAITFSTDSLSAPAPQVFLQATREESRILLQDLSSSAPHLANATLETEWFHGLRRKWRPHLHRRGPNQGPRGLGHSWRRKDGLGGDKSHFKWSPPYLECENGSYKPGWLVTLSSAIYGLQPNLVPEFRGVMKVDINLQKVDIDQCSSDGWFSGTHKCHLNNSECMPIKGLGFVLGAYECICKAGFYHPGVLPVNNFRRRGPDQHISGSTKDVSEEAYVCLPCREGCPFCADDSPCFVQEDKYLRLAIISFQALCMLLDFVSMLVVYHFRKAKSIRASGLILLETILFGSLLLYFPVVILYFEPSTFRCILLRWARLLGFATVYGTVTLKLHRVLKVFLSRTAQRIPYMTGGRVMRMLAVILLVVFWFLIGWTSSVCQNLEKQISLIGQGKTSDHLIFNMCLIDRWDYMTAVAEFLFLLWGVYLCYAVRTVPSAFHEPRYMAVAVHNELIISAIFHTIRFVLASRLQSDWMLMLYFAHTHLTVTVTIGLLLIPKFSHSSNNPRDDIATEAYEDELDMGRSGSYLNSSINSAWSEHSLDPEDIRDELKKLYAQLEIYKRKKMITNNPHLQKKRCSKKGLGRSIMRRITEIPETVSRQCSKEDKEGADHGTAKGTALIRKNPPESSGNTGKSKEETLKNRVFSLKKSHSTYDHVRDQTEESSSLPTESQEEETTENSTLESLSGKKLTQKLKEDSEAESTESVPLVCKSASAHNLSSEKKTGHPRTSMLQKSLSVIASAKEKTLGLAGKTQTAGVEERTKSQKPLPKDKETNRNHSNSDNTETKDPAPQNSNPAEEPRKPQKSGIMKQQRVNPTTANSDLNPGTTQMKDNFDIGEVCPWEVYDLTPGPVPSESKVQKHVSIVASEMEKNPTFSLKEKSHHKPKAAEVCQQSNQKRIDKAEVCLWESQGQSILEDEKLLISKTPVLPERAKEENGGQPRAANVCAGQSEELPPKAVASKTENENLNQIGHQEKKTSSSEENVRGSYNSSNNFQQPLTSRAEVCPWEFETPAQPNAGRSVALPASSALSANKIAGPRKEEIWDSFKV

348 GPCRs [2] = target: T2, 348 GPCRs (Homo sapiens, UniProt Q8IZF5); assay: as above; format: cell-based
T2 construct: expressed in transfected cells; host or cells: HEK293A
T2 sequence (Q8IZF5 26-1079): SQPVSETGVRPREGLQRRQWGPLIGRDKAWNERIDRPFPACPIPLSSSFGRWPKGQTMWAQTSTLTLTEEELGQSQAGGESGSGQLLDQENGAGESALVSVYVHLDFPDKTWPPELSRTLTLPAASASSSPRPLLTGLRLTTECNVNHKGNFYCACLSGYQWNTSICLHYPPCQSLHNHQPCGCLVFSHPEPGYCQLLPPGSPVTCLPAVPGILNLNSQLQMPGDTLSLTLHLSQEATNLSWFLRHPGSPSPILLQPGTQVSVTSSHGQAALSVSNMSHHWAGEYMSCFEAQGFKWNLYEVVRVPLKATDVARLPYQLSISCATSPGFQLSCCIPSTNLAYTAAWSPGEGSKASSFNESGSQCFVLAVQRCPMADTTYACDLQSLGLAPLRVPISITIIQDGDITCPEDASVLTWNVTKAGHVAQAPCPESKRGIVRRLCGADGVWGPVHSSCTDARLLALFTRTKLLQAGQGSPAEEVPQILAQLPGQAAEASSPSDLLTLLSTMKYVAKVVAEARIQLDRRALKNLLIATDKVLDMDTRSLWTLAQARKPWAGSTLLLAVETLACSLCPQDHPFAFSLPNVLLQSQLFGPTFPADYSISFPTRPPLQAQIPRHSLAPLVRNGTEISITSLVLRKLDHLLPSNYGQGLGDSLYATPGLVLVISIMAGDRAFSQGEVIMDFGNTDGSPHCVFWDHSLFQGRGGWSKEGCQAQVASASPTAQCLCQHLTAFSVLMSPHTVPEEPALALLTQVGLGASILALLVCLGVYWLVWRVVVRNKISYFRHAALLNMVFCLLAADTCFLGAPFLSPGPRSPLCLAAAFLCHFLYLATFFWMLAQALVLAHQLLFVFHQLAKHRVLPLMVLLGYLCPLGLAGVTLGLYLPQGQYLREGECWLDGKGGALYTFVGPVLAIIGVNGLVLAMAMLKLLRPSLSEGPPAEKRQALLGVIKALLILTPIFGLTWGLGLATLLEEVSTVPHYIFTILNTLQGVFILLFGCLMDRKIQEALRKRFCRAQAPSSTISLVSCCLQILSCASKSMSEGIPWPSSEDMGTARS

[3] = GPR158 (G Protein-Coupled Receptor 158), read-out: % GPCR activation compared to TPA
[4] = GPCR GPR113 (G-protein-coupled receptor 113 (ADGRF3)), read-out: % GPCR activation compared to TPA
[5] = read-out: % GPCR activation compared to TPA, GPR158 (G Protein-Coupled Receptor 158)
[6] = read-out: % GPCR activation compared to TPA, GPCR GPR113 (G-protein-coupled receptor 113 (ADGRF3))

| Compound | activation at 10 µM (348 GPCRs [1]; [3]) | activation at 10 µM (348 GPCRs [2]; [4]) | activation at 100 µM (348 GPCRs [2]; GPCR GPR113 (G-protein-coupled receptor 113 (ADGRF3)), 100μM, read-out: % GPCR activation compared to TPA) | activation at 10 µM (348 GPCRs [1]; [5]) | activation at 10 µM (348 GPCRs [2]; [6]) |
| --- | --- | --- | --- | --- | --- |
| N#C[C@@]1(c2ccc3c(N)ncnn23)O[C@H](CO)[C@@H](O)[C@H]1O [GS441524] | 0.213% | -1.08% |  |  |  |
| CCC(CC)COC(=O)[C@H](C)N[P@](=O)(OC[C@H]1O[C@@](C#N)(c2ccc3c(N)ncnn23)[C@H](O)[C@@H]1O)Oc1ccccc1 [remdesivir] |  |  |  | 0.972% | 0.66% |
| CC(C)OC(=O)[C@H](C)N[P@](=O)(OC[C@H]1O[C@@H](n2ccc(=O)[nH]c2=O)[C@](C)(F)[C@@H]1O)Oc1ccccc1 [sofosbuvir] |  |  |  | 3.31% | 0.111% |

Second part, led by results:

| activation at 10 µM (348 GPCRs [1]; [3]) | activation at 10 µM (348 GPCRs [2]; [4]) | activation at 100 µM (348 GPCRs [2]; GPCR GPR113 (G-protein-coupled receptor 113 (ADGRF3)), 100μM, read-out: % GPCR activation compared to TPA) | Compound | activation at 10 µM (348 GPCRs [1]; [5]) | activation at 10 µM (348 GPCRs [2]; [6]) |
| --- | --- | --- | --- | --- | --- |
| 2.24% |  | -1.12% | NC(=O)c1nc(F)cnc1O [favipiravir, 6-fluoro-3-hydroxy-2-pyrazinecarboxamide] |  |  |
| 1.57% | -1.49% |  | CC(C)C(=O)OC[C@H]1O[C@@H](n2ccc(NO)nc2=O)[C@H](O)[C@@H]1O [molnupiravir] |  |  |
